One test deals with MMP-13 (Homo sapiens, UniProt P45452). In words: In-vitro fluorescence assay of MMP-13 activity. Format: biochemical. On the procedure:
See Knight, C. […] […].
The method was essentially the same as for the determination of MMP-1 activity, described above, except that the final concentration of purified MMP in the assay was 0.5 nM, prepared by diluting with the assay buffer.

Test [1] has as its system TNF-α secretion in Raw 264.7 cells. In words: Cell-based assay for inhibition of TNF-α secretion in Raw cells. The following applies: Mus musculus, RAW264.7, LPS 100 ng/ml, 4 hr. On the procedure:
The basic measurement of the assay is the percentage of inhibition of TNF-α secretion and the IC50 determination by a fitting with the model-39 of LSW data analysis tool. […] Cells are split twice a week by scraping and 1 to 10 or 20 dilutions. For testing compounds, cells are cultured to confluence and are seeded the day before the experiment in 24 well culture dishes at 0.5 to 1 million/ml well. On the next morning, the medium from the overnight culture is replaced with the fresh growth medium. The compounds are added at various concentration at the 0.2% of final DMSO concentrations (10 μl of a 20% DMSO solution containing testing compounds is added to each well). The cells are pre-incubated with compounds for 1 hr. LPS (Sigma, L2262) is added to cells at a final concentration of 100 ng/ml (10 μl of a […] LPS solution freshly diluted from a 1 mg/ml LPS stock solution in PBS is added to each well) and cells are further incubated for 4 hr at 37° C. 1 ml of the supernatant was collected, cells are spun down and the supernatants are frozen at −80° C. until use. The TNF-α and other proinflammatory cytokines were detected by an ELISA assay according to the manufacturer's instructions (Biosource International, Inc., Camarillo, Calif. (For IL-1b measurement in Raw cells, one round of freeze and thaw of the cells was required).

Test [2] has as its target T1, TACE (catalytic domain of the recombinant TACE protein) (Homo sapiens, UniProt P78536).
T1 construct: The catalytic domain of the recombinant TACE protein was expressed and purified; made in house
In words: TACE FRET assay using TACE Cat. The following applies: FRET, pro-TNF-α substrate peptide; read-out: TACE IC50. Format: biochemical. On the procedure: The procedure is essentially as described in Jin, G. et al., Analytical Biochemistry (2002) 302, 269-275, incorporated by reference herein in its entirety. […] K is the IC50. Generally, n and B are floated, noting that n (hill slope) should be close to 1 and B (background offset) to 0.
Pro-TNF-α substrate peptide Abz-[…]-Dpa (AnaSpec, San Jose, Calif., WARC-1) was prepared as a 2 mM stock solution in the TACE assay buffer (50 mM Tris-HCI, pH 7.4, 25 mM NaCl, 4% Glycerol, 0.005% Brij 35). The catalytic domain of the recombinant TACE protein was expressed and purified. The TACE protein (1 ug/ml) was pretreated with the inhibitors at various concentrations for 10 min at room temperature. The reaction was initiated by the addition of the substrate peptide. The increase in fluorescence was monitored at an Excitation of 320 nm and an Emission of 420 nm over a period of 10 min. The initial rate (slope) of the reaction was determined using a fluorescence plate reader (Molecular Devices, Spectra Max Gemini XS).

In the next test the target is T2, recombinant human MMP-2 (Homo sapiens, UniProt P08253).
T2 sequence (P08253 110-660): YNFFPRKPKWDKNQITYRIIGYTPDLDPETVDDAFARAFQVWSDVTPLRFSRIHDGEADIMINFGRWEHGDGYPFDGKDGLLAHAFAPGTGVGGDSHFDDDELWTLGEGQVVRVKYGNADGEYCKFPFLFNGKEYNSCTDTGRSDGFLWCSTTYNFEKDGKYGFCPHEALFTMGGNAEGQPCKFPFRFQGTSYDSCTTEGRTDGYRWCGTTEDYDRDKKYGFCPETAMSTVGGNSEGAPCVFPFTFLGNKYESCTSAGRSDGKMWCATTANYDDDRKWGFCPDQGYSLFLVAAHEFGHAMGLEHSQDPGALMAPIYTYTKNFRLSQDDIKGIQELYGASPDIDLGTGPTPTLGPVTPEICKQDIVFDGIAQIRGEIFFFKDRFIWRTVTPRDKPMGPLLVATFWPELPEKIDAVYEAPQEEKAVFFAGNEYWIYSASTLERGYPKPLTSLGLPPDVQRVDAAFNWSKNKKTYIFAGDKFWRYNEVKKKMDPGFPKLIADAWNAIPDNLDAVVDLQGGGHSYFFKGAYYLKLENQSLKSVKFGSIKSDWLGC
As to the kind of experiment: In-vitro fluorescence assay of MMP-2 activity. Type of test: biochemical.

Test [3] concerns LPS-induced TNF-α secretion in human whole blood. In words: Human whole blood assay for LPS-induced TNF-α secretion. Format: cell-based. Particulars: Homo sapiens, LPS 100 ng/ml, read-out: TNF Secretion HWB IC50. Here is the method: procedure is essentially as described in Newton, R. C., et al., (2001) Ann Rheum […]32, incorporated by reference herein in its entirety. The basic measurement of the assay is the percentage of inhibition of TNF-α secretion and the IC50 determination by a […] model-39 of LSW data analysis tool. 350 μl of fresh human blood drawn from healthy volunteers were pre-incubated with compounds for one hour at the various concentrations at 37° C. with turning generally, the final DMSO concentrations should be kept below 0.2%. At the end of cubation, LPS (Sigma, L2262) was added to the blood at 100 ng/ml and the samples were further incubated for 4 hours or overnight at 37° C. with constant rotation. At the end of the incubation period, 650 μl of serum-free medium was added to the blood samples and the samples were centrifuged at 1500 rpm for 15 minutes. 500 μl of supernate was collected and frozen at -80° C. The TNF-α and other proinflammatory cytokines were detected by ELISA assay according to the manufacturer's instruction (Biosource International, Inc., Camarillo, Calif.).

The structures appear in SMILES notation. Structures can show the parent of a compound that is named as a salt.

T1 sequence (P78536 223-474 limits assumed): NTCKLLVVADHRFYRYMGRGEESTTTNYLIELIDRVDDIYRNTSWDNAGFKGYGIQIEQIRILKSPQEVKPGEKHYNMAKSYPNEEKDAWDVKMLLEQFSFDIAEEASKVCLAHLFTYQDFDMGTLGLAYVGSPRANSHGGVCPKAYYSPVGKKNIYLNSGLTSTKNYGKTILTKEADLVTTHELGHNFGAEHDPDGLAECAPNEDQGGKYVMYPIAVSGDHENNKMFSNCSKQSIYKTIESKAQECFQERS

The IC50 is the point on the concentration scale where inhibition reaches its midpoint. `Cc1cc(COc2ccc(S(=O)(=O)N[C@@H]3CCOCC3C(=O)NO)cc2)c2ccccc2n1` (stereo in doubt) [Example 24, (3S,4R)-4-[4-(2-Methyl-quinolin-4-ylmethoxy)-benzenesulfonylamino]-tetrahydro-pyran-3-carboxylic acid hydroxyamide]: the IC50 on MMP-13 was above 16.7 µM; in test [1], 17 nM; in test [2], 0.8 nM; on recombinant human MMP-2, above 16.7 µM; in test [3] it was 0.23 µM.
With `Cc1cc(COc2ccc(S(=O)(=O)N(C)[C@@H]3CCOCC3C(=O)NO)cc2)c2ccccc2n1` (stereo in doubt) [Example 25, (3S,4R)-4-{Methyl-[4-(2-methyl-quinolin-4-ylmethoxy)-benzenesulfonyl]-amino}-tetrahydro-pyran-3-carboxylic acid hydroxyamide], the IC50 against MMP-13 is above 16.7 µM; in test [1] it was above 1000 nM; in test [2], 7.9 nM; at recombinant human MMP-2, above 16.7 µM; in test [3], above 50 µM.
Take `Cc1cc(COc2ccc(S(=O)(=O)N(C)[C@H]3COC[C@H]3C(=O)NO)cc2)c2ccccc2n1` (stereo in doubt) [Example 27, (3S,4R)-4-{Methyl-[4-(2-methyl-quinolin-4-ylmethoxy)-benzenesulfonyl]-amino}-tetrahydro-furan-3-carboxylic acid hydroxyamide]: the IC50 is above 16.7 µM at MMP-13; 929 nM in test [1]; 1.4 nM in test [2]; above 16.7 µM at recombinant human MMP-2; 41 µM in test [3].
As to `Cc1cc(COc2ccc(S(=O)(=O)N[C@@H]3CN(C(=O)OC(C)(C)C)CCC3C(=O)NO)cc2)c2ccccc2n1` (stereo in doubt) [Example 33, (3S,4R)-4-Hydroxycarbamoyl-3-[4-(2-methyl-quinolin-4-ylmethoxy)-benzenesulfonylamino]-piperidine-1-carboxylic acid tert-butyl ester], the IC50 against MMP-13 was above 16.7 µM; in test [1], 58 nM; in test [2], 0.7 nM; at recombinant human MMP-2, above 16.7 µM; in test [3], 4.7 µM.
In the case of `Cc1cc(COc2ccc(S(=O)(=O)N[C@@H]3CCN(C=O)C[C@@H]3C(=O)NO)cc2)c2ccccc2n1` [Example 29, (3S,4R)-1-Formyl-4-[4-(2-methyl-quinolin-4-ylmethoxy)-benzenesulfonylamino]-piperidine-3-carboxylic acid hydroxyamide], the IC50 against MMP-13 was 13.2 µM; in test [1], 7 nM; in test [2], 0.8 nM; at recombinant human MMP-2 it was above 16.7 µM; in test [3], 0.086 µM.
On the same counts, the results for `Cc1cc(COc2ccc(S(=O)(=O)N[C@H]3CCN(C(=O)NC(C)(C)C)C[C@H]3C(=O)NO)cc2)c2ccccc2n1` [Example 30, (3S,4R)-4-[4-(2-Methyl-quinolin-4-ylmethoxy)-benzenesulfonylamino]-piperidine-1,3-dicarboxylic acid 1-tert-butylamide 3-hydroxyamide] are 9.09 µM, 30 nM, below 0.6 nM, above 10 µM and 0.25 µM.
In the same order, the values of `Cc1cc(COc2ccc(S(=O)(=O)N[C@@H]3CCOC[C@]3(C)C(=O)NO)cc2)c2ccccc2n1` [Example 44, (3R,4R)-N-hydroxy-3-methyl-4-[({4-[(2-methylquinolin-4-yl)methoxy]phenyl}sulfonyl)amino]tetrahydro-2H-pyran-3-carboxamide] are above 16.7 µM, 1670 nM, 0.5 nM, above 16.7 µM and 46 µM.
On to `Cc1cc(COc2ccc(S(=O)(=O)N[C@@H]3CCOC[C@@]3(C)C(=O)NO)cc2)c2ccccc2n1` [Example 45, (3S,4R)-N-hydroxy-3-methyl-4-[({4-[(2-methylquinolin-4-yl)methoxy]phenyl}sulfonyl)amino]tetrahydro-2H-pyran-3-carboxamide], for which the half-inhibitory concentration (IC50) against MMP-13 was above 16.7 µM; in test [1], 1920 nM; in test [2], 6.2 nM; at recombinant human MMP-2, above 16.7 µM; in test [3] it was above 50 µM.
For the molecule `Cc1cc(COc2ccc(S(=O)(=O)N[C@@H]3CCN(C=O)C[C@]3(O)C(=O)NO)cc2)c2ccccc2n1` [Example 46, 4-({4-[({(3R,4R)-1-Formyl-3-hydroxy-3-[(hydroxyamino)carbonyl]piperidin-4-yl}amino)sulfonyl]phenoxy}methyl)-2-methylquinolinium trifluoroacetic acid salt], the IC50 is above 16.7 µM against MMP-13; 160 nM in test [1]; 1.4 nM in test [2]; above 16.7 µM at recombinant human MMP-2; 2.9 µM in test [3].
`CC(=O)N1CC[C@@H](NS(=O)(=O)c2ccc(OCc3cc(C)nc4ccccc34)cc2)[C@@](C)(C(=O)NO)C1` [Example 47, (3S,4R)-1-acetyl-N-hydroxy-3-methyl-4-[({4-[(2-methylquinolin-4-yl)methoxy]phenyl}sulfonyl)amino]piperidine-3-carboxamide]: the 50% inhibitory concentration (IC50) against MMP-13 is above 16.7 µM; in test [1], above 1000 nM; in test [2], 6.4 nM; at recombinant human MMP-2, above 16.7 µM; in test [3] it was above 50 µM.
Turning to `Cc1cc(COc2ccc(S(=O)(=O)N[C@@H]3CCN(C(C)C)C[C@]3(C)C(=O)NO)cc2)c2ccccc2n1` [Example 48, (3S,4R)-N-hydroxy-1-isopropyl-3-methyl-4-[({4-[(2-methylquinolin-4-yl)methoxy]phenyl}sulfonyl)amino]piperidine-3-carboxamide], the IC50 was above 16.7 µM against MMP-13; above 1000 nM in test [1]; 211 nM in test [2]; above 16.7 µM at recombinant human MMP-2; above 50 µM in test [3].
Regarding `C#CCN1CC[C@@H](NS(=O)(=O)c2ccc(OCc3cc(C)nc4ccccc34)cc2)[C@@](C)(C(=O)NO)C1` [Example 49, (3S,4R)-N-hydroxy-3-methyl-4-[({4-[(2-methylquinolin-4-yl)methoxy]phenyl}sulfonyl)amino]-1-prop-2-yn-1-ylpiperidine-3-carboxamide], the IC50 is above 16.7 µM against MMP-13; above 1000 nM in test [1]; 19 nM in test [2]; above 16.7 µM on recombinant human MMP-2; above 50 µM in test [3].

The record behind these values is patent publication US7595327B2, “Beta-sulfonamide hydroxamic acid inhibitors of tace/matrix metalloproteinase” (priority 2005, dated 2009).
